Laboratory results: US7598234B2, “Steroid derived antibiotics” (Brigham Young University, priority 1998, dated 2009)
Converted amounts (≈) assume the structure as drawn.

Key:
E. coli (ATCC 10798) [1] = assay: MIC and MBC measurement with E. coli (ATCC 10798); format: cell-based, Escherichia coli; details: Table 9; Escherichia coli (ATCC 10798)
Outline: (§1)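 In sensitization runs, erythromycin or novobiocin followed the cholic acid derivative by 15 minutes in TSB; cultures then sat at 37° C. for 24 hours before A760 reading. Clear samples were subcultured to TSA for CFU counts relative to the inoculum.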

E. coli (ATCC 10798) [2] = assay: Sensitization to novobiocin (concentration lowering the MIC of novobiocin), E. coli (ATCC 10798); format: cell-based, Escherichia coli; details: Table 9; Escherichia coli (ATCC 10798)
[3] = test system: Pseudomonas aeruginosa (ATCC 27853); assay: MIC and MBC measurement with Pseudomonas aeruginosa (ATCC 27853); format: cell-based; details: Table 10; Pseudomonas aeruginosa ATCC 27853
Outline: as §1

[4] = test system: Pseudomonas aeruginosa (ATCC 27853); assay: Sensitization to erythromycin, Pseudomonas aeruginosa (ATCC 27853); format: cell-based; details: Table 11, Pseudomonas aeruginosa ATCC 27853; for FIC: erythromycin (by order); for concentration required to inhibit bacterial growth with antibiotic: erythromycin (by order) at 0.5, 1.0 or 3.0 μg/mL
Outline: (§2)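 Tube checkerboard in TSB: cholic acid derivatives added, then erythromycin or novobiocin 15 min later, antibiotics at 0.5, 1.0 or 3.0 μg/mL; stationary 37 °C, 24 h. Turbidity read at 760 nm; clear samples subcultured on TSA for CFU counts versus inoculum; FIC derived for synergy.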

[5] = test system: Pseudomonas aeruginosa (ATCC 27853); assay: Sensitization to novobiocin, Pseudomonas aeruginosa (ATCC 27853); format: cell-based; details: Table 12, Pseudomonas aeruginosa ATCC 27853; for FIC: novobiocin (by order); for concentration required to inhibit bacterial growth with antibiotic: novobiocin (by order) at 0.5, 1.0 or 3.0 μg/mL
Outline: as §2

[6] = test system: Salmonella typhimurium ATCC 14028; assay: MIC and MBC measurement with Salmonella typhimurium ATCC 14028; format: cell-based; details: Table 10
Outline: as §1

[7] = test system: Enterococcus faecalis ATCC 29212; assay: MIC and MBC measurement with Enterococcus faecalis ATCC 29212; format: cell-based; details: Table 10
From the text: (§3) General: Microorganisms. Reference strains were purchased from the American Type Culture Collection (Rockville, Md.) or Bactrol disks from Difeo Laboratories (Detroit, Mich.). The following specific ATCC strains were used: 10798 Escherichia coli, 25922 Escherichia coli, 13883 Klebsiella pneumoniae, 27853 Pseudomonas aeruginosa, 14028 Salmonella typhimurium, 29212 Enterococcus faecalis, 25923 Staphylococcus aureus, 19615 Streptococcus pyogenes, and 90028 Candida albicans. Bacterial strains were maintained on Mueller-Hinton agar plates, and Candida albicans was maintained on Sabouraud Dextrose agar plates.
(§4) Tryptic soy broth (TSB) was made by dissolving 27.5 grams of tryptic soy broth without dextrose (DIFCO Laboratories) in 1 liter of deionized water and sterilizing at 121° C. for 15 minutes. Solid agar (TSA) plates were made by dissolving 6.4 grams of tryptic soy broth and 12 grams of agar (purified grade, Fischer Scientific) in 800 mL of deionized water and sterilizing at 121° C. for 20 minutes. Aliquots (20 mL) of the homogeneous solution were then poured in sterile plastic petri dishes (100×15 mm, Fisher Scientific). Solutions of compounds were made by dissolving the HCl salt of the respective compound into an appropriate amount of deionized and sterilized water followed by microfiltration.
(§5) Aliquots of 1 mL of the suspension were added to test tubes containing 1 mL TSB and incrementally varied concentrations of cholic acid derivatives and/or erythromycin or novobiocin. In the sensitization experiments, erythromycin or novobiocin were added 15 minutes later than the cholic acid derivatives. The samples were subjected to stationary incubation at 37° C. for 24 hours. Sample turbidity was determined by measuring absorption at 760 nm (HP 8453 UV-Visible Chemstation, Hewlett Packard). Additionally, an alliquot from each of the samples showing no measurable turbidity was subcultured on TSA plates (alliquots were diluted to provide fewer than 300 CFU). Colonies that grew on the subculture after overnight incubation were counted and the number of CFU/mL in the samples were calculated. The calculated values were compared to the number of CFU/mL in the original inoculum.

[8] = test system: Streptococcus pyrogenes ATCC 19615; assay: MIC and MBC measurement with Streptococcus pyogenes ATCC 19615; format: cell-based; details: Table 10
From the text: as §3, §4, §5

[9] = test system: Klebsiella pneumonia ATCC 13883; assay: Growth inhibition and FIC with novobiocin, Klebsiella pneumoniae ATCC 13883; format: cell-based; details: Table 12, novobiocin (by order) at 0.5, 1.0 or 3.0 μg/mL
Experimental: (§6) Alternatively, “fractional inhibitory concentration (FIC)” is also useful for determination of synergy between the compounds of the invention, or the compounds in combination with known antibiotics. FICs can be performed by checkerboard titrations of compounds in one dimension of a microtiter plate, and of antibiotics in the other dimension, for example. The FIC is calculated by looking at the impact of one antibiotic on the MIC of the other and vice versa. […] Preferably, an FIC of less than 0.5 is obtained for synergism. As used herein, FIC can be determined as follows:
as §5
(§7) To measure permeabilization, the FIC values for compounds 1, 2, 5, 106, 10, 112, 133, and 134 with erythromycin, novobiocin, and rifampicin were determined. Concentrations of 0.5, 1.0 or 3.0 μg/mL of these antibiotics were used, and the concentrations of the cholic acid derivatives required to inhibit bacterial growth of Gram-negative strains were determined.

[10] = test system: Salmonella typhimurium ATCC 14028; assay: Growth inhibition and FIC with novobiocin, Salmonella typhimurium ATCC 14028; format: cell-based; details: for FIC: Table 12, novobiocin (by order); for concentration required to inhibit bacterial growth with antibiotic: Table 12, novobiocin (by order) at 0.5, 1.0 or 3.0 μg/mL
Experimental: as §6, §5, §7

[11] = test system: Escherichia coli ATCC 25922; assay: Growth inhibition and FIC with rifampicin, Escherichia coli ATCC 25922; format: cell-based; details: for FIC: Table 13, rifampicin (by order); for concentration required to inhibit bacterial growth with antibiotic: Table 13, rifampicin (by order) at 0.5, 1.0 or 3.0 μg/mL
Experimental: as §6, §5, §7

[12] = test system: Klebsiella pneumonia ATCC 13883; assay: Growth inhibition and FIC with rifampicin, Klebsiella pneumoniae ATCC 13883; format: cell-based; details: for FIC: Table 13, rifampicin (by order); for concentration required to inhibit bacterial growth with antibiotic: Table 13, rifampicin (by order) at 0.5, 1.0 or 3.0 μg/mL
Experimental: as §6, §5, §7

[13] = test system: Pseudomonas aeruginosa ATCC 27853; assay: Growth inhibition and FIC with rifampicin, Pseudomonas aeruginosa ATCC 27853; format: cell-based; details: Table 13, Pseudomonas aeruginosa ATCC 27853^b; for FIC: rifampicin (by order); for concentration required to inhibit bacterial growth with antibiotic: rifampicin (by order) at 0.5, 1.0 or 3.0 μg/mL
Experimental: as §6, §5, §7

[14] = test system: Salmonella typhimurium ATCC 14028; assay: Growth inhibition and FIC with rifampicin, Salmonella typhimurium ATCC 14028; format: cell-based; details: Table 13, Salmonella typhimurium ATCC 14028^b; for FIC: rifampicin (by order); for concentration required to inhibit bacterial growth with antibiotic: rifampicin (by order) at 0.5, 1.0 or 3.0 μg/mL
Experimental: as §6, §5, §7

For `C[C@]12CC[C@@H](OCCCN)C[C@H]1C[C@@H](OCCCN)[C@@H]1[C@@H]2C[C@H](OCCCN)[C@]2(C)[C@@H](O)CC[C@@H]12` [Compound 106], the MBC (E. coli (ATCC 10798) [1]) was >200 µg/mL, the MIC (E. coli (ATCC 10798) [1]) was 140 µg/mL (≈ 282 µM) and the “(d) Concentration required to lower the MIC of novobiocin from >500 to 1 μg/mL” value (E. coli (ATCC 10798) [2]) was 50 µg/mL. The “FIC values with novobiocin” value (E. coli (ATCC 10798) [2]) was 0.36, the MBC [3] was 97 µg/mL (≈ 196 µM) and the MIC [3] was 85 µg/mL (≈ 171 µM). The FIC [4] was 0.22, the “concentration required to inhibit bacterial growth with antibiotic” value [4] was 16 µg/mL and the FIC [5] was 0.36. The “concentration required to inhibit bacterial growth with antibiotic” value [5] was 30 µg/mL, the MBC [6] was >100 µg/mL and the MIC [6] was >100 µg/mL. The MBC [7] was >100 µg/mL, the MIC [7] was 12 µg/mL (≈ 24.2 µM) and the MBC [8] was 37 µg/mL (≈ 74.6 µM). For the same compound, the MIC [8] was 18 µg/mL (≈ 36.3 µM), the “concentration required to inhibit bacterial growth with antibiotic” value [9] was 8.9 µg/mL and the FIC [10] was 0.094. For the same compound, the “concentration required to inhibit bacterial growth with antibiotic” value [10] was 8.4 µg/mL, the FIC [11] was 0.12 and the “concentration required to inhibit bacterial growth with antibiotic” value [11] was 4.2 µg/mL. For the same compound, the FIC [12] was 0.044, the “concentration required to inhibit bacterial growth with antibiotic” value [12] was 1.8 µg/mL and the FIC [13] was 0.17. The “concentration required to inhibit bacterial growth with antibiotic” value [13] was 11 µg/mL, the FIC [14] was 0.064 and the “concentration required to inhibit bacterial growth with antibiotic” value [14] was 1.4 µg/mL.
`CCCOCCC[C@@H](C)[C@H]1CC[C@H]2[C@@H]3[C@H](OCCCN)C[C@@H]4C[C@H](OCCCN)CC[C@]4(C)[C@H]3C[C@H](OCCCN)[C@]12C` [Compound 112] was tested, and the MBC (E. coli (ATCC 10798) [1]) was 17 µg/mL (≈ 28 µM), the MIC (E. coli (ATCC 10798) [1]) was 12 µg/mL (≈ 19.7 µM) and the “(d) Concentration required to lower the MIC of novobiocin from >500 to 1 μg/mL” value (E. coli (ATCC 10798) [2]) was 0.8 µg/mL. The “FIC values with novobiocin” value (E. coli (ATCC 10798) [2]) was 0.085, the MBC [3] was 6.4 µg/mL (≈ 10.5 µM) and the MIC [3] was 4.6 µg/mL (≈ 7.57 µM). The FIC [4] was 0.59, the “concentration required to inhibit bacterial growth with antibiotic” value [4] was 1.0 µg/mL and the FIC [5] was 0.17. For the same compound, the “concentration required to inhibit bacterial growth with antibiotic” value [5] was 0.72 µg/mL, the MBC [6] was 90 µg/mL (≈ 148 µM) and the MIC [6] was 86 µg/mL (≈ 141 µM). For the same compound, the MBC [7] was 4.7 µg/mL (≈ 7.73 µM), the MIC [7] was 3.1 µg/mL (≈ 5.1 µM) and the MBC [8] was 3.0 µg/mL (≈ 4.93 µM). For the same compound, the MIC [8] was 2.4 µg/mL (≈ 3.95 µM), the “concentration required to inhibit bacterial growth with antibiotic” value [9] was 0.19 µg/mL and the FIC [10] was 0.015. For the same compound, the “concentration required to inhibit bacterial growth with antibiotic” value [10] was 0.39 µg/mL, the FIC [11] was 0.19 and the “concentration required to inhibit bacterial growth with antibiotic” value [11] was 0.81 µg/mL. For the same compound, the FIC [12] was 0.031, the “concentration required to inhibit bacterial growth with antibiotic” value [12] was 0.11 µg/mL and the FIC [13] was 0.15. For the same compound, the “concentration required to inhibit bacterial growth with antibiotic” value [13] was 0.50 µg/mL, the FIC [14] was 0.051 and the “concentration required to inhibit bacterial growth with antibiotic” value [14] was 0.10 µg/mL.
